Measured values from BindingDB's records for doi:10.1016/j.bmcl.2019.01.031 (Merck, 2019).

Legend:
[1] = Inhibition of NS5A in HCV genotype 1a assessed as decrease in viral replication
[2] = Inhibition of NS5A Y93H mutant in HCV genotype 1a assessed as decrease in viral replication
[3] = Inhibition of NS5A in HCV genotype 2b assessed as decrease in viral replication
[4] = Inhibition of NS5A in HCV genotype 4a assessed as decrease in viral replication
[5] = Inhibition of NS5A in HCV genotype 3a assessed as decrease in viral replication
[6] = Inhibition of NS5A in HCV genotype 1b assessed as decrease in viral replication
[7] = Inhibition of NS5A in HCV genotype 2a assessed as decrease in viral replication
[8] = Inhibition of NS5A L31V mutant in HCV genotype 1a assessed as decrease in viral replication

Structure (SMILES) | EC50 [1] [nM] | EC50 [2] [nM] | EC50 [3] [nM] | EC50 [4] [nM] | EC50 [5] [nM] | EC50 [6] [nM] | EC50 [7] [nM] | EC50 [8] [nM]
COC(=O)N[C@H](C(=O)N1CCC[C@H]1c1ncc(-c2ccc3c(ccc4c(=O)c5cc(-c6cnc([C@@H]7CCCN7C(=O)[C@@H](NC(=O)OC)C(C)C)[nH]6)ccc5oc43)c2)[nH]1)C(C)C | 0.02 | 66 |  |  |  |  |  | 
COC(=O)N[C@H](C(=O)N1CCC[C@H]1c1ncc(-c2ccc3c(c2)Oc2ccc4cc(-c5cnc([C@@H]6CCCN6C(=O)[C@@H](NC(=O)OC)C(C)C)[nH]5)ccc4c2C3(C)C)[nH]1)C(C)C | 0.0029 | 18 | 11 |  |  |  |  | 
CC[C@@H]1c2ccc(-c3cnc([C@@H]4CCCN4C(=O)[C@@H](NC(=O)OC)C4CCOCC4)[nH]3)cc2Oc2ccc3cc(-c4cnc([C@@H]5CCCN5C[C@@H](NC(=O)OC)C5CCOCC5)[nH]4)ccc3c21 | 0.01 | 0.8 | 0.3 | 0.01 | 0.2 | 0.004 |  | 
COC(=O)N[C@H](C(=O)N1C[C@H](F)C[C@H]1c1ncc(-c2ccc3c(ccc4oc5cc(-c6cnc([C@@H]7C[C@@H](F)CN7C(=O)[C@@H](NC(=O)OC)C(C)C)[nH]6)ccc5c(=O)c43)c2)[nH]1)C(C)C | 0.029 | 1.2 | 90 |  | > 1 | 0.0045 |  | 
COC(=O)N[C@H](C(=O)N1CCC[C@H]1c1ncc(-c2ccc3c(c2)Oc2ccc4cc(-c5cnc([C@@H]6CCCN6C(=O)[C@@H](NC(=O)OC)C(C)C)[nH]5)ccc4c2[C@@H]3C)[nH]1)C(C)C | 0.0046 | 11 | 37 |  | 1.4 | 0.0036 |  | 
COC(=O)N[C@H](C(=O)N1CCC[C@H]1c1ncc(-c2ccc3c(c2)Oc2ccc4cc(-c5cnc([C@@H]6CCCN6C[C@@H](NC(=O)OC)C6CCOCC6)[nH]5)ccc4c2C3(C)C)[nH]1)C1CCOCC1 | 0.002 | 0.7 | 0.3 | 0.006 | 0.08 | 0.004 |  | 
CCC1c2ccc(-c3cnc([C@@H]4CCCN4C(=O)[C@@H](NC(=O)OC)C(C)C)[nH]3)cc2Oc2ccc(-c3cnc([C@@H]4CCCN4C(=O)[C@@H](NC(=O)OC)C(C)C)[nH]3)cc21 (some centres not stated) | 0.02 | 24 |  |  | 0.07 | 0.004 | 0.005 | 
CCN(CC)[C@@H](C(=O)N1C[C@H](F)C[C@H]1c1ncc(-c2ccc3c(ccc4oc5cc(-c6cnc([C@@H]7C[C@@H](F)CN7C(=O)[C@@H](c7ccccc7)N(CC)CC)[nH]6)ccc5c(=O)c43)c2)[nH]1)c1ccccc1 | 0.31 | 506 | 797 |  | 0.026 |  |  | 
CC[C@H]1c2ccc(-c3cnc([C@@H]4CCCN4C(=O)[C@@H](NC(=O)OC)C(C)C)[nH]3)cc2Oc2ccc3cc(-c4cnc([C@@H]5CCCN5C(=O)[C@@H](NC(=O)OC)C(C)C)[nH]4)ccc3c21 | 0.005 | 12 | 0.78 |  | 1.1 |  |  | 
COC(=O)N[C@H](C(=O)N1CCC[C@H]1c1ncc(-c2ccc3c(c2)Oc2ccc4cc(-c5cnc([C@@H]6CCCN6C[C@@H](NC(=O)OC)C6CCOCC6)[nH]5)ccc4c2[C@@H]3C)[nH]1)C1CCOCC1 | 0.005 | 0.5 | 0.5 | 0.004 | 0.06 | 0.006 |  | 0.03
COC(=O)N[C@H](C(=O)N1CCC[C@H]1c1ncc(-c2ccc3c(=O)c4cc(-c5cnc([C@@H]6CCCN6C(=O)[C@@H](NC(=O)OC)C(C)C)[nH]5)ccc4oc3c2)[nH]1)C(C)C | 0.01 | 1730 |  |  |  | 0.002 | 0.1 | 
COC(=O)N[C@H](C(=O)N1CCC[C@H]1c1ncc(-c2ccc3c(ccc4oc5ccc(-c6cnc([C@@H]7CCCN7C(=O)[C@@H](NC(=O)OC)C(C)C)[nH]6)cc5c(=O)c43)c2)[nH]1)C(C)C | 0.2 | > 100 | > 100 |  | > 1 | 0.1 |  | 
COC(=O)N[C@H](C(=O)N1C[C@H](F)C[C@H]1c1ncc(-c2ccc3c(ccc4oc5cc(-c6cnc([C@@H]7C[C@@H](F)CN7C(=O)[C@@H](NC(=O)OC)C7CCOCC7)[nH]6)ccc5c(=O)c43)c2)[nH]1)C1CCOCC1 | 0.084 | 0.18 | 3.5 |  | 5.8 |  |  | 
COC(=O)N[C@H](C(=O)N1CCC[C@H]1c1ncc(-c2ccc3c(c2)C(C)c2ccc4cc(-c5cnc([C@@H]6CCCN6C(=O)[C@@H](NC(=O)OC)C(C)C)[nH]5)ccc4c2O3)[nH]1)C(C)C (some centres not stated) | 0.0057 | 49 |  |  |  |  |  | 
CCC1(CC)c2ccc(-c3cnc([C@@H]4CCCN4C(=O)[C@@H](NC(=O)OC)C(C)C)[nH]3)cc2Oc2ccc3cc(-c4cnc([C@@H]5CCCN5C(=O)[C@@H](NC(=O)OC)C(C)C)[nH]4)ccc3c21 | 0.002 | 4.1 | 3.3 |  | 0.58 |  |  | 
COC(=O)N[C@H](C(=O)N1CCC[C@H]1c1ncc(-c2ccc3c(c2)Oc2ccc4cc(-c5cnc([C@@H]6CCCN6C[C@@H](NC(=O)OC)C6CCOCC6)[nH]5)ccc4c2[C@H]3C)[nH]1)C1CCOCC1 | 0.004 | 0.4 | 0.02 | 0.009 | 0.04 | 0.004 |  | 0.03
COC(=O)N[C@H](C(=O)N1CCC[C@H]1c1ncc(-c2ccc3c(ccc4oc5cc(-c6cnc([C@@H]7CCCN7C(=O)[C@@H](NC(=O)OC)C(C)C)[nH]6)ccc5c(=O)c43)c2)[nH]1)C(C)C | 0.003 | 18 | 14 |  | > 1 | 0.003 |  | 
COC(=O)N[C@H](C(=O)N1CCC[C@H]1c1ncc(-c2ccc3c(F)c4oc5ccc(-c6cnc([C@@H]7CCCN7C(=O)[C@@H](NC(=O)OC)C(C)C)[nH]6)cc5c(=O)c4cc3c2)[nH]1)C(C)C | > 1 | > 100 | > 100 |  | > 1 | > 1 |  | 
CCC1(CC)c2ccc(-c3cnc([C@@H]4CCCN4C(=O)[C@@H](NC(=O)OC)C(C)C)[nH]3)cc2Oc2cc3ccc(-c4cnc([C@@H]5CCCN5C(=O)[C@@H](NC(=O)OC)C(C)C)[nH]4)cc3cc21 | 0.002 | 3.3 | 4.5 |  | 1.1 |  |  | 
CC[C@H]1c2ccc(-c3cnc([C@@H]4CCCN4C(=O)[C@@H](NC(=O)OC)C4CCOCC4)[nH]3)cc2Oc2ccc3cc(-c4cnc([C@@H]5CCCN5C[C@@H](NC(=O)OC)C5CCOCC5)[nH]4)ccc3c21 | 0.004 | 0.2 |  |  | 0.03 |  |  | 
COC(=O)N[C@H](C(=O)N1CCC[C@H]1c1ncc(-c2ccc3c(ccc4oc5cc(-c6cnc([C@@H]7CCCN7C(=O)[C@@H](NC(=O)OC)C7CCOCC7)[nH]6)ccc5c(=O)c43)c2)[nH]1)C1CCOCC1 | 0.041 | 2 | 0.48 |  | 0.72 |  |  | 
COC(=O)N[C@H](C(=O)N1CCC[C@H]1c1ncc(-c2ccc3c(c2)Oc2ccc4cc(-c5cnc([C@@H]6CCCN6C(=O)[C@@H](NC(=O)OC)C(C)C)[nH]5)ccc4c2[C@H]3C)[nH]1)C(C)C | 0.0022 | 7.2 | 1.9 |  | 0.72 | 0.0016 |  | 
CC[C@@H]1c2ccc(-c3cnc([C@@H]4CCCN4C(=O)[C@@H](NC(=O)OC)C(C)C)[nH]3)cc2Oc2ccc3cc(-c4cnc([C@@H]5CCCN5C(=O)[C@@H](NC(=O)OC)C(C)C)[nH]4)ccc3c21 | 0.0027 | 15 | 13 |  | 1.7 |  |  | 
COC(=O)N[C@H](C(=O)N1CCC[C@H]1c1nc(-c2ccc3c(c2)O[C@@H](c2ccccc2)n2c-3cc3cc(-c4c[nH]c([C@@H]5CCCN5C(=O)[C@@H](NC(=O)OC)C(C)C)n4)ccc32)c[nH]1)C(C)C [Elbasvir] | 0.004 |  |  |  | 0.02 | 0.003 | 0.003 | 
